Columns and labels:
[1] = test system: Foxtail, Green, Setaria viridis; test: Postemergence herbicidal evaluation, SETVI; assay type: in vivo, (L.) Beau; conditions: 0.2500 kg/ha
Procedure, shortened: (§1)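 Seedlings grown about two weeks were sprayed with compound in 50/50 acetone/water containing 0.5% TWEEN 20 at rates equivalent to about 0.0157–0.500 kg/ha, nozzle at 40 psi. Injury was rated visually 0–9 versus control four to five weeks after treatment; replicate tests averaged.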

[2] = test system: Soybean, Williams, Glycine max; test: Postemergence herbicidal evaluation, GLXMAW; assay type: in vivo, (L.) Merr. cv Williams; conditions: 0.2500 kg/ha
Procedure, shortened: as §1

[3] = test system: Wheat, Winter, cv Riband, Triticum aestivum; test: Postemergence herbicidal evaluation, TRZAWR; assay type: in vivo; conditions: 0.2500 kg/ha
Procedure, shortened: as §1

[4] = test system: Wheat, Winter, cv Riband, Triticum aestivum; test: Preemergence herbicidal evaluation, TRZAWR; assay type: in vivo; conditions: 0.2500 kg/ha
From the text: (§2) Results of herbicide evaluation are expressed on a rating scale (0-9). The scale is based upon a visual observation of plant stand, vigor, malformation, size, chlorosis and overall plant appearance as compared with a control.
(§3) The preemergence herbicidal activity of the test compounds of the present invention is exemplified by the following tests in which the seeds of a variety of monocotyledonous and dicotyledonous plants are separately mixed with potting soil and planted on top of approximately one inch of soil in separate pint cups. After planting, the cups are sprayed with the selected aqueous acetone solution containing test compound in sufficient quantity to provide the equivalent of about 0.0156 to 0.500 kg per hectare of test compound per cup. The treated cups are then placed on greenhouse benches, watered and cared for in accordance with conventional greenhouse procedures. From four to five weeks after treatment, the tests are terminated and each cup is examined and rated according to the rating system provided in Example 185.
(§4) The compounds evaluated are reported by compound number given in Example 185.

[5] = test system: Rice, Tebonnet, Oryza sativa; test: Postemergence herbicidal evaluation, ORYSAT; assay type: in vivo, (L.) Tebonnet; conditions: 0.2500 kg/ha
Procedure, shortened: as §1

[6] = test system: Morningglory Spp., Ipomoea Spp.; test: Preemergence herbicidal evaluation, IPOSS; assay type: in vivo; conditions: 0.2500 kg/ha
From the text: as §2, §3, §4

CYPSE Flatsedge [7] = test: Preemergence weed control, flooded paddy (Table III); assay type: in vivo, Cyperus serotinus; parameters: scale not given here
Procedure: (§5) Preemergence herbicidal activity under flooded paddy conditions is determined as follows: plant seeds or propagating organs are planted in the top 0.5 cm of silt loam soil in 32 oz. plastic containers with a diameter of 10.5 cm and no drainage holes. Water is added to these containers and maintained at 1.5 to 3 cm above the soil surface for the duration of the experiment. The test compounds are applied as aqueous/acetone mixtures 50/50 v/v pipetted directly into the flood water to give the equivalent of about 0.0313 to 0.500 kg/ha of active ingredient. The treated containers are placed on greenhouse benches and cared for in accordance with conventional greenhouse procedures. Three to four weeks after treatment, the test is terminated and each container is examined and herbicidal effect rated according to the rating system provided in Example 185. The compounds evaluated are reported by compound number given in Example 185.

Corn, Field, Zea mays = test: Postemergence herbicidal evaluation, ZEAMX; assay type: in vivo, L.; conditions: 0.2500 kg/ha
Procedure, shortened: as §1

CYPIR Rice Flatsedge = test: Postemergence weed control, flooded paddy (Table IV); assay type: in vivo, Cyperus iria; parameters: scale not given here
From the text: (§6) Plastic containers containing weeds which are 3 to 5 cm tall and rice seedlings at the 1.5 to 2.5 leaf stage are flooded with water. The water is maintained at 1.5 to 3 cm above the soil surface for the duration of the experiment. Test compounds are applied as aqueous/acetone mixtures 50/50 v/v directly into the flood water to provide the equivalent of about 0.0313 to 0.500 kg/ha of active ingredient. The treated containers are placed on greenhouse benches and cared for in accordance with conventional greenhouse procedures. Three to four weeks after treatment, the test is terminated and each container is examined and herbicidal effect rated according to the rating system provided in Example 185. The compounds evaluated are reported by compound number given in Example 185.

[8] = test system: Lambsquarters, Common, Chenopodium album; test: Postemergence herbicidal evaluation, CHEAL; assay type: in vivo, L.; conditions: 0.2500 kg/ha
Procedure, shortened: as §1

ORYSAT Rice, Tebonnet = test: Rice tolerance, flooded paddy (Table IV); assay type: in vivo, Oryza sativa; parameters: scale not given here; conditions: crop tolerance
From the text: as §6

[9] = test system: SAGPY Arrowhead (Pygmaea); test: Preemergence weed control, flooded paddy (Table III); assay type: in vivo, Sagittaria pygmaea; parameters: scale not given here
Procedure: as §5

CYPSE Flatsedge [10] = test: Postemergence weed control, flooded paddy (Table IV); assay type: in vivo, Cyperus serotinus; parameters: scale not given here
From the text: as §6

[11] = test system: Barnyardgrass, Echinochloa crus-galli; test: Postemergence herbicidal evaluation, ECHCG; assay type: in vivo, (L.) Beau; conditions: 0.2500 kg/ha
Procedure, shortened: as §1

[12] = test system: SAGPY Arrowhead (Pygmaea); test: Postemergence weed control, flooded paddy (Table IV); assay type: in vivo, Sagittaria pygmaea; parameters: scale not given here
From the text: as §6

[13] = test system: Sicklepod, Cassia obtusifolia; test: Preemergence herbicidal evaluation, CASOB; assay type: in vivo, L.; conditions: 0.2500 kg/ha
From the text: as §2, §3, §4

MOOVA Monochoria = test: Preemergence weed control, flooded paddy (Table III); assay type: in vivo, Monochoria vaginalis; parameters: scale not given here
Procedure: as §5

Row | SMILES | herbicide rating (0-9) [1] | herbicide rating (0-9) [2] | herbicide rating (0-9) [3] | herbicide rating (0-9) [4] | herbicide rating (0-9) [5] | herbicide rating (0-9) [6] | herbicidal effect rating (CYPSE Flatsedge [7]; 0.0313 kg/ha) | herbicidal effect rating (CYPSE Flatsedge [7]; 0.0625 kg/ha) | herbicidal effect rating (CYPSE Flatsedge [7]; 0.1250 kg/ha) | herbicidal effect rating (CYPSE Flatsedge [7]; 0.2500 kg/ha) | herbicidal effect rating (CYPSE Flatsedge [7]; 0.5000 kg/ha) | herbicide rating (0-9) (Corn, Field, Zea mays) | herbicidal effect rating (CYPIR Rice Flatsedge; 0.1250 kg/ha) | herbicidal effect rating (CYPIR Rice Flatsedge; 0.2500 kg/ha) | herbicidal effect rating (CYPIR Rice Flatsedge; 0.5000 kg/ha) | herbicide rating (0-9) [8] | herbicidal effect rating (ORYSAT Rice, Tebonnet; 0.1250 kg/ha) | herbicidal effect rating (ORYSAT Rice, Tebonnet; 0.2500 kg/ha) | herbicidal effect rating (ORYSAT Rice, Tebonnet; 0.5000 kg/ha) | herbicidal effect rating ([9]; 0.0313 kg/ha) | other results
1 | COc1cc(C)ccc1-c1nsc2ccc(-n3c(=O)cc(C(F)(F)F)n(C)c3=O)cc12 [Compound 7, 3-[3-(2-Methoxy-p-tolyl)-1,2-benzisothiazol-5-yl]-1-methyl-6-(trifluoromethyl)-2,4(1H,3H)-pyrimidinedione] | 9.0 | 9.0 | 7.0 | 6.0 | 6.5 | 9.0 | 7.0 | 7.0 | 8.0 | 7.0 | 9.0 | 7.0 | 9.0 | 9.0 | 9.0 | 9.0 | 7.0 | 7.0 | 8.0 | 6.0 | herbicidal effect rating ([9]; 0.0625 kg/ha): 8.0; herbicidal effect rating ([9]; 0.1250 kg/ha): 9.0; herbicidal effect rating ([9]; 0.2500 kg/ha): 9.0; herbicidal effect rating ([9]; 0.5000 kg/ha): 9.0; herbicidal effect rating (CYPSE Flatsedge [10]; 0.1250 kg/ha): 9.0; herbicidal effect rating (CYPSE Flatsedge [10]; 0.2500 kg/ha): 9.0; herbicidal effect rating (CYPSE Flatsedge [10]; 0.5000 kg/ha): 8.0; herbicide rating (0-9) [11]: 8.0; herbicidal effect rating ([12]; 0.1250 kg/ha): 4.0; herbicidal effect rating ([12]; 0.2500 kg/ha): 9.0; herbicidal effect rating ([12]; 0.5000 kg/ha): 9.0; herbicide rating (0-9) [13]: 9.0; herbicidal effect rating (MOOVA Monochoria; 0.0313 kg/ha): 9.0; herbicidal effect rating (MOOVA Monochoria; 0.0625 kg/ha): 9.0; herbicidal effect rating (MOOVA Monochoria; 0.1250 kg/ha): 9.0; herbicidal effect rating (MOOVA Monochoria; 0.2500 kg/ha): 9.0; herbicidal effect rating (MOOVA Monochoria; 0.5000 kg/ha): 9.0
2 | COC(=O)COc1cc(C)ccc1-c1nsc2ccc(-n3c(=O)cc(C(F)(F)F)n(C)c3=O)cc12 [Compound 8, Methyl {{6-{5-[3,6-dihydro-3-methyl-4-(trifluoromethyl)-2,6-dioxo-1(2H)-pyrimidinyl]-1,2-benzisothiazol-3-yl}-m-tolyl}oxy}acetate] | 9.0 | 9.0 | 9.0 | 9.0 | 8.5 | 9.0 | 4.0 | 9.0 | 9.0 | 9.0 | 9.0 | 9.0 | 9.0 | 9.0 | 9.0 | 9.0 | 6.0 | 8.0 | 9.0 | 6.0 | herbicidal effect rating ([9]; 0.0625 kg/ha): 9.0; herbicidal effect rating ([9]; 0.1250 kg/ha): 9.0; herbicidal effect rating ([9]; 0.2500 kg/ha): 9.0; herbicidal effect rating ([9]; 0.5000 kg/ha): 9.0; herbicidal effect rating (CYPSE Flatsedge [10]; 0.1250 kg/ha): 7.0; herbicidal effect rating (CYPSE Flatsedge [10]; 0.2500 kg/ha): 7.0; herbicidal effect rating (CYPSE Flatsedge [10]; 0.5000 kg/ha): 9.0; herbicide rating (0-9) [11]: 9.0; herbicidal effect rating ([12]; 0.1250 kg/ha): 4.0; herbicidal effect rating ([12]; 0.2500 kg/ha): 9.0; herbicidal effect rating ([12]; 0.5000 kg/ha): 9.0; herbicide rating (0-9) [13]: 9.0; herbicidal effect rating (MOOVA Monochoria; 0.0313 kg/ha): 9.0; herbicidal effect rating (MOOVA Monochoria; 0.0625 kg/ha): 9.0; herbicidal effect rating (MOOVA Monochoria; 0.1250 kg/ha): 9.0; herbicidal effect rating (MOOVA Monochoria; 0.2500 kg/ha): 9.0; herbicidal effect rating (MOOVA Monochoria; 0.5000 kg/ha): 9.0
